The subject of one assay is HCT116-MTAP-KO. In words: Cell killing in HCT116 isogenic pair (Cell Titer-Glo viability), MTAP knock-out cells. In kind it is cell-based, human. The note with it: Homo sapiens, HCT-116, 144 h, 6 days incubation, 0-10 μM, * = more than 50% viability inhibition at tested concentration without a full curve. The source says: (§1) HCT116 cell line (ATCC, CCL-247) was isolated from the colon of an adult with colon cancer. It has a mutation in codon 13 of the ras proto-oncogene and can be used as a positive control for PCR assays of mutation in this codon. HCT116-MTAP-KO was knocked-out-MTAP-gene based HCT116, and a single clone was passed for this assay. HCT116-mock-RNA-KO was knocked-out-mock-gene based HCT116 with MTAP wildtype genotype. The base medium for HCT116 isogenic pair is RPMI 1640, HEPES (Gibco, 22400105). To make the complete growth medium, added the following components to the base medium: fetal bovine serum to a final concentration of 10% (Gibco, 10099-141C). The cell line was grown in a humidified 5% CO2 atmosphere at 37° C. and regularly tested for the presence of mycoplasma with MpcoAlert™ PLUS Mycoplasma Detection Kit (Lonzak LT07-710).
(§2) • Seeded HCT116-mock-RNA-KO (4E2/well) or HCT116-MTAP-KO (4E2/well) cells into a 96-well plate (Greiner: 655090), 100 μL/well. • Incubated at 37° C., 5% CO2, overnight. • Added 50 μL fresh growth medium containing serial dilution of test compounds for a final test compound concentration of 0-10 μM to each well. • Incubated at 37° C., 5% CO2, 6 days. • The cell viability was detected by Cell Titer-Glo (Promega, G7573). Added 70 μL of CeliTiter-Glo® reagent in each well. • Incubated at room temperature for 10 minutes to stabilize luminescent signal. • Analyzed with Microplate Reader (TECAN, SPARK) and fit IC50 using Prism® 9.
On the technique in general: ATP-based viability assays read luminescence as a measure of living cells.

The subject of another assay is HCT116-mock-RNA-KO. Briefly: Cell killing in HCT116 isogenic pair (Cell Titer-Glo viability), mock knock-out cells with MTAP wildtype genotype. The note with it: Homo sapiens, HCT-116, 144 h, 6 days incubation, 0-10 μM. The assay is classed as cell-based, human.
Description: as §1, §2

Among the data in patent US20240368177A1, “5-AMINO-6,8-DIHYDRO-1H-FURO[3,4-d]PYRROLO[3,2-b]PYRIDINE-2-CARBOXAMIDE DERIVATIVES AS MTA-COOPERATIVE INHIBITORS OF PRMT5” (BeiGene Switzerland GmbH, priority 2023, published 2024) are IC50 values, retold here.

Bounds are passed on as bounds.

For `Nc1nc2cc(C(=O)N(Cc3ccc(-c4c(F)cncc4F)cn3)[C@@H]3CCCc4cccnc43)[nH]c2c2c1COC2` [Example 1, (R)-5-amino-N-((3′,5′-difluoro-[3,4′-bipyridin]-6-yl)methyl)-N-(5,6,7,8-tetrahydroquinolin-8-yl)-6,8-dihydro-1H-furo[3,4-d]pyrrolo[3,2-b]pyridine-2-carboxamide], the IC50 – broadly, the concentration that gives 50% inhibition – with HCT116-MTAP-KO was below 1.5 nM; in the assay with HCT116-mock-RNA-KO, 4.6 nM.

As for `Nc1nc2cc(C(=O)N(Cc3ccc(-c4c(F)cccc4F)cn3)[C@@H]3CCCc4cccnc43)[nH]c2c2c1COC2` [Example 2, (R)-5-amino-N-((5-(2,6-difluorophenyl)pyridin-2-yl)methyl)-N-(5,6,7,8-tetrahydroquinolin-8-yl)-6,8-dihydro-1H-furo[3,4-d]pyrrolo[3,2-b]pyridine-2-carboxamide], the IC50 in the assay on HCT116-MTAP-KO was 3.3 nM; with HCT116-mock-RNA-KO, 23 nM.

On to `Nc1nc2cc(C(=O)N(Cc3c(F)cccc3F)Cc3c(F)cccc3F)[nH]c2c2c1COC2` [Example 3, 5-amino-N,N-bis(2,6-difluorobenzyl)-6,8-dihydro-1H-furo[3,4-d]pyrrolo[3,2-b]pyridine-2-carboxamide], for which the IC50 in the assay with HCT116-MTAP-KO was 2.4 nM; in the assay with HCT116-mock-RNA-KO, 221 nM.

`CO[C@@H]1CCOC[C@H]1N(Cc1ccc(-c2c(F)cccc2F)cn1)C(=O)c1cc2nc(N)c3c(c2[nH]1)COC3` [Example 4, 5-amino-N-((5-(2,6-difluorophenyl)pyridin-2-yl)methyl)-N-((3R,4R)-4-methoxytetrahydro-2H-pyran-3-yl)-6,8-dihydro-1H-furo[3,4-d]pyrrolo[3,2-b]pyridine-2-carboxamide]: the IC50 in the assay on HCT116-MTAP-KO was determined as 2.3 nM; with HCT116-mock-RNA-KO, 99 nM.

For the compound `Nc1nc2cc(C(=O)N(Cc3c(F)cccc3F)[C@@H]3CCCc4cccnc43)[nH]c2c2c1COC2` [Example 5, (R)-5-amino-N-(2,6-difluorobenzyl)-N-(5,6,7,8-tetrahydroquinolin-8-yl)-6,8-dihydro-1H-furo[3,4-d]pyrrolo[3,2-b]pyridine-2-carboxamide], the IC50 in the assay with HCT116-MTAP-KO was 4 nM; in the assay on HCT116-mock-RNA-KO, 76 nM.

As to `Nc1nc2cc(C(=O)N(Cc3ccc(-c4c(F)cccc4F)cc3F)[C@@H]3CCCc4cccnc43)[nH]c2c2c1COC2` [Example 6, (R)-5-amino-N-(5,6,7,8-tetrahydroquinolin-8-yl)-N-((2′,3,6′-trifluoro-[1,1′-biphenyl]-4-yl)methyl)-6,8-dihydro-1H-furo[3,4-d]pyrrolo[3,2-b]pyridine-2-carboxamide], the figures for the IC50 in the assay on HCT116-MTAP-KO and in the assay with HCT116-mock-RNA-KO were 11 nM and 40 nM, respectively.

`Nc1nc2cc(C(=O)N(Cc3ncccc3F)Cc3ncccc3F)[nH]c2c2c1COC2` [Example 7, 5-amino-N,N-bis((3-fluoropyridin-2-yl)methyl)-6,8-dihydro-1H-furo[3,4-d]pyrrolo[3,2-b]pyridine-2-carboxamide]: the figures for the IC50 in the assay on HCT116-MTAP-KO and with HCT116-mock-RNA-KO were 30 nM and 3140 nM, respectively.

As to `COCC(C)N(Cc1c(F)cccc1F)C(=O)c1cc2nc(N)c3c(c2[nH]1)COC3` (stereo not drawn) [Example 8, 5-amino-N-(2,6-difluorobenzyl)-N-(1-methoxypropan-2-yl)-6,8-dihydro-1H-furo[3,4-d]pyrrolo[3,2-b]pyridine-2-carboxamide], the IC50 in the assay with HCT116-MTAP-KO stood at 34 nM; in the assay with HCT116-mock-RNA-KO, 2750 nM.

With `COCC(COC)N(Cc1c(F)cccc1F)C(=O)c1cc2nc(N)c3c(c2[nH]1)COC3` [Example 9, 5-amino-N-(2,6-difluorobenzyl)-N-(1,3-dimethoxypropan-2-yl)-6,8-dihydro-1H-furo[3,4-d]pyrrolo[3,2-b]pyridine-2-carboxamide], the results for the IC50 in the assay with HCT116-MTAP-KO and in the assay on HCT116-mock-RNA-KO were 46 nM and 3440 nM, respectively.

Take `Nc1nc2cc(C(=O)N(Cc3c(F)cncc3F)[C@@H]3CCCc4cccnc43)[nH]c2c2c1COC2` [Example 10, (R)-5-amino-N-((3,5-difluoropyridin-4-yl)methyl)-N-(5,6,7,8-tetrahydroquinolin-8-yl)-6,8-dihydro-1H-furo[3,4-d]pyrrolo[3,2-b]pyridine-2-carboxamide]: the IC50 in the assay on HCT116-MTAP-KO amounted to 4.6 nM; in the assay on HCT116-mock-RNA-KO, 247 nM.

For the compound `N#Cc1cnccc1-c1ccc(CN(C(=O)c2cc3nc(N)c4c(c3[nH]2)COC4)[C@@H]2CCCc3cccnc32)nc1` [Example 11, (R)-5-amino-N-((3′-cyano-[3,4′-bipyridin]-6-yl)methyl)-N-(5,6,7,8-tetrahydroquinolin-8-yl)-6,8-dihydro-1H-furo[3,4-d]pyrrolo[3,2-b]pyridine-2-carboxamide], the IC50 in the assay on HCT116-MTAP-KO came out at 3.8 nM; with HCT116-mock-RNA-KO, 69 nM.

With `Nc1nc2cc(C(=O)N(Cc3ccc(-c4c(F)cccc4F)cn3)[C@@H]3CCOc4ccccc43)[nH]c2c2c1COC2` [Example 12, 5-amino-N-(chroman-4-yl)-N-((5-(2,6-difluorophenyl)pyridin-2-yl)methyl)-6,8-dihydro-1H-furo[3,4-d]pyrrolo[3,2-b]pyridine-2-carboxamide], the IC50 with HCT116-MTAP-KO stood at 29 nM; with HCT116-mock-RNA-KO it was 1910 nM.

For the compound `Nc1nc2cc(C(=O)N(Cc3ccc(-c4c(F)cccc4F)cn3)Cc3c(F)cccc3F)[nH]c2c2c1COC2` [Example 13, 5-amino-N-(2,6-difluorobenzyl)-N-((5-(2,6-difluorophenyl)pyridin-2-yl)methyl)-6,8-dihydro-1H-furo[3,4-d]pyrrolo[3,2-b]pyridine-2-carboxamide], the IC50 in the assay with HCT116-MTAP-KO is 4.6 nM; in the assay with HCT116-mock-RNA-KO it was 251 nM.

On to `CO[C@@H]1CCOC[C@H]1N(Cc1ccc(-c2c(F)cccc2F)cc1F)C(=O)c1cc2nc(N)c3c(c2[nH]1)COC3` [Example 14, 5-amino-N-((3R,4R)-4-methoxytetrahydro-2H-pyran-3-yl)-N-((2′,3,6′-trifluoro-[1,1′-biphenyl]-4-yl)methyl)-6,8-dihydro-1H-furo[3,4-d]pyrrolo[3,2-b]pyridine-2-carboxamide], for which the IC50 is below 1.5 nM in the assay on HCT116-MTAP-KO and 554 nM in the assay on HCT116-mock-RNA-KO.

With `CO[C@@H]1CCOC[C@H]1N(Cc1ccc(-c2c(F)cncc2F)cn1)C(=O)c1cc2nc(N)c3c(c2[nH]1)COC3` [Example 15, 5-amino-N-((3′,5′-difluoro-[3,4′-bipyridin]-6-yl)methyl)-N-((3R,4R)-4-methoxytetrahydro-2H-pyran-3-yl)-6,8-dihydro-1H-furo[3,4-d]pyrrolo[3,2-b]pyridine-2-carboxamide], the IC50 was found to be 8.1 nM in the assay with HCT116-MTAP-KO and 225 nM in the assay with HCT116-mock-RNA-KO.

For the compound `COCC(COC)N(Cc1ccc(-c2c(F)cccc2F)cn1)C(=O)c1cc2nc(N)c3c(c2[nH]1)COC3` [Example 16, 5-amino-N-((5-(2,6-difluorophenyl)pyridin-2-yl)methyl)-N-(1,3-dimethoxypropan-2-yl)-6,8-dihydro-1H-furo[3,4-d]pyrrolo[3,2-b]pyridine-2-carboxamide], the IC50 in the assay on HCT116-MTAP-KO was found to be 1 nM; in the assay with HCT116-mock-RNA-KO, 165 nM.

As for `C[C@@H](c1ncccn1)N(Cc1ccc(-c2c(F)cccc2F)cn1)C(=O)c1cc2nc(N)c3c(c2[nH]1)COC3` [Example 17, (S)-5-amino-N-((5-(2,6-difluorophenyl)pyridin-2-yl)methyl)-N-(1-(pyrimidin-2-yl)ethyl)-6,8-dihydro-1H-furo[3,4-d]pyrrolo[3,2-b]pyridine-2-carboxamide], the values for the half-inhibitory concentration (IC50) in the assay with HCT116-MTAP-KO and in the assay with HCT116-mock-RNA-KO were 8.2 nM and 1050 nM, respectively.

As to `C[C@H](c1ncccn1)N(Cc1ccc(-c2c(F)cccc2F)cn1)C(=O)c1cc2nc(N)c3c(c2[nH]1)COC3` [Example 18, (R)-5-amino-N-((5-(2,6-difluorophenyl)pyridin-2-yl)methyl)-N-(1-(pyrimidin-2-yl)ethyl)-6,8-dihydro-1H-furo[3,4-d]pyrrolo[3,2-b]pyridine-2-carboxamide], the values for the IC50 in the assay on HCT116-MTAP-KO and with HCT116-mock-RNA-KO were 1.8 nM and 96 nM, respectively.

On to `Nc1nc2cc(C(=O)N(Cc3ccc(-c4c(F)cccc4F)cc3F)[C@@H]3CCOc4cccnc43)[nH]c2c2c1COC2` [Example 19, (R)-5-amino-N-(3,4-dihydro-2H-pyrano[3,2-b]pyridin-4-yl)-N-((2′,3,6′-trifluoro-[1,1′-biphenyl]-4-yl)methyl)-6,8-dihydro-1H-furo[3,4-d]pyrrolo[3,2-b]pyridine-2-carboxamide], for which the values for the IC50 with HCT116-MTAP-KO and with HCT116-mock-RNA-KO were below 1.5 nM and 185 nM, respectively.

Consider `Nc1nc2cc(C(=O)N(Cc3ccc(-c4c(F)cccc4F)cc3F)[C@H]3CCOc4cccnc43)[nH]c2c2c1COC2` [Example 20, (S)-5-amino-N-(3,4-dihydro-2H-pyrano[3,2-b]pyridin-4-yl)-N-((2′,3,6′-trifluoro-[1,1′-biphenyl]-4-yl)methyl)-6,8-dihydro-1H-furo[3,4-d]pyrrolo[3,2-b]pyridine-2-carboxamide], for which the IC50 in the assay with HCT116-MTAP-KO was found to be 658 nM; in the assay with HCT116-mock-RNA-KO it was 4000 nM.

For the compound `N#Cc1cc(F)c(CN(C(=O)c2cc3nc(N)c4c(c3[nH]2)COC4)[C@@H]2CCCc3cccnc32)c(F)c1` [Example 21, (R)-5-amino-N-(4-cyano-2,6-difluorobenzyl)-N-(5,6,7,8-tetrahydroquinolin-8-yl)-6,8-dihydro-1H-furo[3,4-d]pyrrolo[3,2-b]pyridine-2-carboxamide], the IC50 in the assay with HCT116-MTAP-KO is below 1.5 nM; in the assay on HCT116-mock-RNA-KO, 7 nM.
